PMC7370100, “In Vitro Assessment of the Genotoxic Hazard of Novel Hydroxamic Acid- and Benzamide-Type Histone Deacetylase Inhibitors (HDACi)” (International Journal of Molecular Sciences, 2020)

Tests used:
[1] = test system: VC8 hamster cells (BRCA1/2 defect); test: Viability of DSB repair defective VC8 versus wild-type V79 cells (Alamar blue); type: cell-based; conditions: 72 h, Alamar blue, in words
Procedure: (§1) V79 hamster lung cells, which are recommended in the OECD toxicology guidelines for hazard identification (i.e., cytotoxicity and genotoxicity) of chemicals, were purchased from the German Collection of Microorganisms and Cell Cultures (DSMZ, Braunschweig, Germany). They were cultured in Dulbecco´s modified Eagle medium and Ham´s F12 medium (DMEM/F12) (PromoCell, Heidelberg, Germany) containing 10% fetal calf serum at 37 °C in a humidified atmosphere containing 5% CO2. VC8 hamster cells were defective in DNA double-strand break (DSB) repair by homologous recombination (HR) due to the lack of functional BRCA2 protein [69, 70]. VC8 cells were provided by B. Kaina (Institute of Toxicology, Mainz, Germany). Nucleotide excision repair defective XPA and CSB deficient cells were also provided by B. Kaina and were described before. They were grown in DMEM containing 10% fetal calf serum. Human neuroblastoma cells (IMR-32 and SH-SY5Y) were purchased from the German Collection of Microorganisms and Cell Cultures (DSMZ, Braunschweig, Germany) and were used as a model of malignant cells. They were grown in DMEM or RPMI (Roswell park memorial institute) medium, respectively, containing 10% fetal calf serum. If not stated otherwise, HDACi were added to the exponentially growing cells and analyses were performed 6 h to 72 h later.
(§2) Cell viability was determined using the Alamar blue assay, which reflected the mitochondrial activity. Viable cells were characterized by an effective mitochondrial metabolization of the non-fluorescent dye resazurin (Sigma, Steinheim, Germany) to fluorescent resorufin (excitation: 535 nm, emission: 590 nm). Relative viability in the untreated control was set to 100%. In addition, the Neutral red assay, which measures the integrity of lysosomal membranes, was used to monitor cytotoxicity. To this end, cells were incubated with the Neutral red solution (0.01%) in an atmosphere containing 5% CO2 for 90 min before they were fixed (1% formaldehyde/1% CaCl2). Afterwards, the Neutral red that was taken up by the cells was extracted (50% ethanol/1% of acetic acid, 15 min at room temperature (RT)) and absorbance (540 nm) was measured. If not stated otherwise, data are shown as the mean ± standard deviation (SD) of two to three independent experiments each performed in quadruplicate. Approximate IC50 (~IC50, see Supplementary Table S1) were calculated from the corresponding dose-response curves.

[2] = test system: XPA-deficient cells; test: Viability of XPA-deficient versus proficient fibroblasts (Alamar blue); type: cell-based, human; conditions: 72 h, in words
Procedure: Figure 7 Sensitivity of nucleotide excision repair (NER) defective cells to hydroxamic acid- and benzamide-type HDACi. Viability of wild-type human fibroblasts and fibroblasts defective in nucleotide excision repair (NER) pathways (i.e., global genome nucleotide excision repair (GG-NER) or transcription-coupled nucleotide excision repair (TC-NER)) due to a defect in Xeroderma pigmentosum group A protein (XPA) or Cockayne syndrome protein B (CSB), respectively, was analyzed 72 h after the addition of HDACi by the Alamar blue assay, as described in Methods. The DNA intrastrand cross-linking agent cisplatin was used for control. Data shown are the mean ± SD from three independent experiments (n = 3) each performed in triplicate (N = 3); ns, not significant; *, p ≤ 0.05; **, p ≤ 0.01 as compared to the corresponding untreated controls (Student´s t-test).
V79 hamster lung cells, which are recommended in the OECD toxicology guidelines for hazard identification (i.e., cytotoxicity and genotoxicity) of chemicals, were purchased from the German Collection of Microorganisms and Cell Cultures (DSMZ, Braunschweig, Germany). They were cultured in Dulbecco´s modified Eagle medium and Ham´s F12 medium (DMEM/F12) (PromoCell, Heidelberg, Germany) containing 10% fetal calf serum at 37 °C in a humidified atmosphere containing 5% CO2. VC8 hamster cells were defective in DNA double-strand break (DSB) repair by homologous recombination (HR) due to the lack of functional BRCA2 protein [69, 70]. VC8 cells were provided by B. Kaina (Institute of Toxicology, Mainz, Germany). Nucleotide excision repair defective XPA and CSB deficient cells were also provided by B. Kaina and were described before. […]
Cell viability was determined using the Alamar blue assay, which reflected the mitochondrial activity. […] Afterwards, the Neutral red that was taken up by the cells was extracted (50% ethanol/1% of acetic acid, 15 min at room temperature (RT)) and absorbance (540 nm) was measured. […] Approximate IC50 (~IC50, see Supplementary Table S1) were calculated from the corresponding dose-response curves.

[3] = test system: V79 hamster lung cells; test: Alamar blue assay (cell viability), V79 cells; type: cell-based; conditions: Alamar blue assay, approximate IC50
Procedure: as §1, §2

[4] = test system: V79 hamster lung cells; test: Neutral red assay (cytotoxicity), V79 cells; type: cell-based
Procedure: as §1, §2

[5] = test system: SH-SY5Y neuroblastoma cells; test: Alamar blue assay (cell viability), SH-SY5Y cells; type: cell-based, human
Procedure: as §1, §2

[6] = test system: IMR-32 neuroblastoma cells; test: Neutral red assay (cytotoxicity), IMR-32 cells; type: cell-based, human
Procedure: as §1, §2

[7] = test system: IMR-32 neuroblastoma cells; test: Alamar blue assay (cell viability), IMR-32 cells; type: cell-based, human
Procedure: as §1, §2

[8] = test system: SH-SY5Y neuroblastoma cells; test: Neutral red assay (cytotoxicity), SH-SY5Y cells; type: cell-based, human
Procedure: as §1, §2

[9] = test system: V79 cells
Procedure: The formation of DNA strand breaks and apurinic/apyrimidinic sites was monitored employing the alkaline comet assay [87], which is part of the OECD guideline of in vivo genotoxicity testings and detects DNA strand breaks (DNA single- and double-strand breaks) and alkali-labile sites [87]. Briefly, after aspiration of the medium and trypsinization, cells were mixed with 0.5% melting agarose and transferred onto agarose-coated (1.5%) slides. After lysis in alkaline buffer (pH 10) (1 h, 4 °C, light protection) and unwinding of the DNA in precooled lysis buffer (pH >13) (20 min, 4 °C, light protection), electrophoresis was performed (electric current: 300 mA constant; 1 V/cm). After neutralization in salt buffer (pH 7.5) and staining with propidium iodide solution (50 µg/mL), comets were evaluated by fluorescence microscopy. Quantification of migrated DNA was performed with TriTek Comet Score™ software Version 1.5, evaluating ≥50 cells per condition (blinded assessment). […] Fold increase in tail intensities of treated cells were calculated by relating the % DNA in tail of treated cells to that of the corresponding untreated controls, which were set to 1.0 (see Figure 2B).

[10] = test system: V79 cells; remark: listed apart in the source
Procedure: We analyzed the frequency of micronuclei in binucleated cells, as described [86]. Briefly, logarithmically growing cells were treated with cytochalasin B (3 µg/m) for 24 h. After fixation with formaldehyde (3.7% in PBS, 20 min, RT) and washing with PBS, cells were permeabilized using precooled methanol (20 min, −20 °C.) After washing with PBS and rinsing the cell layer with PBS containing Triton X100 (PBST; 0.3% Triton X100 in PBS), DNA was stained by DAPI (4´,6-diamino-2-phenylindole) and the number of micronuclei was evaluated by fluorescence microscopy. Data shown are the mean ± SEM of three independent experiments with ≥1000 binucleated cells evaluated per experimental condition.

[11] = 24 h, approximate IC50, read-out: IC50 - 24 h Treatment, SH-SY5Y
[12] = 72 h, approximate IC50, read-out: IC50 - 72 h Treatment, SH-SY5Y
[13] = 24 h, approximate IC50, read-out: IC50 - 24 h Treatment, IMR-32
[14] = 72 h, approximate IC50, read-out: IC50 - 72 h Treatment, IMR-32

## C/C=C1\NC(=O)[C@H]2CSSCC/C=C/[C@H](CC(=O)N[C@H](C(C)C)C(=O)N2)OC(=O)[C@H](C(C)C)NC1=O [romidepsin]
[1]
  sensitivity of VC8 cells versus V79 cells: hypersensitive

## N.N.[Cl][Pt][Cl] [cisplatin]
[2]
  sensitivity of XPA-deficient versus XPA proficient cells: XPA deficient cells are hypersensitive

## Nc1ccccc1NC(=O)c1ccc(CNc2nccc(-c3cccnc3)n2)cc1 [mocetinostat]
[1]
  sensitivity of VC8 cells versus V79 cells: hypersensitive

## CCCCON(Cc1ccc(C(=O)NO)cc1)C(=O)Nc1cc(C)cc(C)c1 [MPK264]
[3]; 24 h, read-out: IC50 - 24 h Treatment, V79
  IC50: 22 µM
[3]; 72 h, read-out: IC50 - 72 h Treatment, V79
  IC50: 19 µM
[4]; 24 h, approximate IC50, read-out: IC50 - 24 h Treatment, V79
  IC50: 20 µM
[4]; 72 h, approximate IC50, read-out: IC50 - 72 h Treatment, V79
  IC50: 17 µM
[5]; [11]
  IC50: 10 µM
[5]; [12]
  IC50: 3 µM
[6]; [13]
  IC50: 16 µM
[6]; [14]
  IC50: 2 µM
[7]; [13]
  IC50: 12 µM
[7]; [14]
  IC50: 2 µM
[8]; [11]
  IC50: 24 µM
[8]; [12]
  IC50: 3 µM

## COS(C)(=O)=O [MMS, methyl methanesulfonate]
[9]
  DNA strand breaks (comet assay): substantially increased the level of DNA strand breaks
[9]; hamster, 0.25 mM
  Mean (% DNA in tail): 50.9 % DNA in tail
[10]
  frequency of micronuclei: substantial clastogenicity
